# Test results taken from publication PMC3249654 (The Open Virology Journal, 2011).
# Values joined by “and” are separate entries in the source; they are usually repeats but may differ in a detail not shown here. Equal values may be shown once. “Also recorded” adds a separate entry of the source. Read-outs that look alike come from different tables or passages of the source.
# How the values were obtained:
# [1] = system: M2 of influenza A(H1N1) viruses
# [2] = system: NA enzyme activity of influenza A(H1N1) viruses; type: biochemical, influenza A(H1N1) virus
# [3] = system: influenza virus; conditions: human, in vivo; cited from earlier work
smiles,measurement,setting,value
NC12CC3CC(CC(C3)C1)C2 [amantadine],susceptibility of oseltamivir resistant A(H1N1) viruses to amantadine / M2I,[1],still susceptible
CCOC(=O)C1=C[C@@H](OC(CC)CC)[C@H](NC(C)=O)[C@@H](N)C1 [oseltamivir],"proportion of viruses resistant against oseltamivir, phenotypic assessment",[2],29%
same,oseltamivir-resistance emerged in treated children,[3],18% and 16%
CC(=O)N[C@H]1[C@H]([C@H](O)[C@H](O)CO)OC(C(=O)O)=C[C@@H]1N=C(N)N [zanamivir],susceptibility of oseltamivir resistant A(H1N1) viruses to zanamivir,[2],None of influenza A(H1N1) oseltamivir resistant viruses tested was resistant; also recorded: sensitive; also recorded: still susceptible
same,IC50,[2]; read-out: baseline zanamivir IC50-value (mean±SD),1.05 nM and 0.98 nM
same,IC50,[2]; read-out: mean IC50 ± SD,0.87 ± 0.22 nM
